Settings in all cases: binder
Test [1] addresses CDK6 (Homo sapiens, UniProt Q00534).
The target of test [2] is DAPK3 (Homo sapiens, UniProt O43293).
For test [3], the target named is BMPR1B (Homo sapiens, UniProt O00238).
The target of test [4] is ACVR2A (Homo sapiens, UniProt P27037).
For test [5], the target named is PKN2 (Homo sapiens, UniProt Q16513).
Test [6] addresses MAPK3 (Homo sapiens, UniProt P27361).
In test [7] the target is PRKAA2 (Homo sapiens, UniProt P54646).
Test [8] has as its target MAPK6 (Homo sapiens, UniProt Q16659).
Test [9] addresses PRKD3 (Homo sapiens, UniProt O94806).
Test [10] addresses MAP2K6 (Homo sapiens, UniProt P52564).
Test [11] has as its target STK17A (Homo sapiens, UniProt Q9UEE5).
Test [12] concerns the target ACVRL1 (Homo sapiens, UniProt P37023).
The target in test [13] is STK3 (Homo sapiens, UniProt Q13188).
Test [14] deals with STK38 (Homo sapiens, UniProt Q15208).
For test [15], the target named is ACVR1B (Homo sapiens, UniProt P36896).
Test [16] has as its target RPS6KA3 (Homo sapiens, UniProt P51812).
In test [17] the target is AKT3 (Homo sapiens, UniProt Q9Y243).
For test [18], the target named is ACVR2B (Homo sapiens, UniProt Q13705).
The target of test [19] is CDC42BPB (Homo sapiens, UniProt Q9Y5S2).
Test [20] has as its target MAP2K1 (Homo sapiens, UniProt Q02750).
Test [21] addresses TRIB1 (Homo sapiens, UniProt Q96RU8).
For test [22], the target named is CDKL5 (Homo sapiens, UniProt O76039).
Test [23] has as its target SIK2 (Homo sapiens, UniProt Q9H0K1).
Test [24] concerns the target CDK4 (Homo sapiens, UniProt P11802).
Test [25] concerns the target MAP4K4 (Homo sapiens, UniProt O95819).
For test [26], the target named is MAPK13 (Homo sapiens, UniProt O15264).
The target in test [27] is NEK2 (Homo sapiens, UniProt P51955).
For test [28], the target named is MYLK2 (Homo sapiens, UniProt Q9H1R3).
For test [29], the target named is IKBKB (Homo sapiens, UniProt O14920).
Test [30] concerns the target STK24 (Homo sapiens, UniProt Q9Y6E0).
Test [31] addresses PDPK1 (Homo sapiens, UniProt O15530).

PKN2, sequence (Q16513 whole entry): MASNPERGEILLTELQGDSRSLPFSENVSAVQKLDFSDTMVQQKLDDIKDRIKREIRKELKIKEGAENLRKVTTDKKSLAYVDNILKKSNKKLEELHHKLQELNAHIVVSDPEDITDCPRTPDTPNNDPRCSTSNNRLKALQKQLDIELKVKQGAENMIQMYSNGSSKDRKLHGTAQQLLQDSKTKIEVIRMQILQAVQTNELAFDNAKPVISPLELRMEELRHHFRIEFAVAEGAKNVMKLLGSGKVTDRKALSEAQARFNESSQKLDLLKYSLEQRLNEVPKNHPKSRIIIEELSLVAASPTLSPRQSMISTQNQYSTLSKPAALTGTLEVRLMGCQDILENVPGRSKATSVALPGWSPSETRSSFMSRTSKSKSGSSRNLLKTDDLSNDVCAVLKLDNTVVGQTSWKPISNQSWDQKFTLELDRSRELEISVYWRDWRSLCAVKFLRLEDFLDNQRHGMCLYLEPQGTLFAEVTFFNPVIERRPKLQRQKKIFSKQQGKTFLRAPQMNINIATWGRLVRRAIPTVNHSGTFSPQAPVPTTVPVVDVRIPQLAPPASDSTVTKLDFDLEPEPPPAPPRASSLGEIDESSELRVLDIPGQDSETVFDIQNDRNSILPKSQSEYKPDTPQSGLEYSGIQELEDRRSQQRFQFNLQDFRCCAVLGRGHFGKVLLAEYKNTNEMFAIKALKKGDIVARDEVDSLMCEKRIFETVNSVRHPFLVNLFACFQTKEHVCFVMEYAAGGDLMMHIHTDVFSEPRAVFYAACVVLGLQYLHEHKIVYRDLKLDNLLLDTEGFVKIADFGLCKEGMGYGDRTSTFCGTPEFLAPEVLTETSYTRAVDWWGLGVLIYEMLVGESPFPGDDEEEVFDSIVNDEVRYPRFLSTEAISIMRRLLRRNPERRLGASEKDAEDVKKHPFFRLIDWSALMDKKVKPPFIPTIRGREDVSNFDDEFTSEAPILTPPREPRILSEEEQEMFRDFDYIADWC
CDK4, sequence (P11802 whole entry): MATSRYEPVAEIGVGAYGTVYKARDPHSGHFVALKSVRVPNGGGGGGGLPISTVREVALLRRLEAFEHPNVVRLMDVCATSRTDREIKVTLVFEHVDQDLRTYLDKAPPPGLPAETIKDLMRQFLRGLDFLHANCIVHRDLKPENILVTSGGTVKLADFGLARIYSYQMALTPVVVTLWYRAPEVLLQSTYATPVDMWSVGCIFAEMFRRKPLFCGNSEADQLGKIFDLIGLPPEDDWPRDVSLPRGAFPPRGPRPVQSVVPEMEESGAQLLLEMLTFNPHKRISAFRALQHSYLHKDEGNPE
IKBKB, sequence (O14920 whole entry): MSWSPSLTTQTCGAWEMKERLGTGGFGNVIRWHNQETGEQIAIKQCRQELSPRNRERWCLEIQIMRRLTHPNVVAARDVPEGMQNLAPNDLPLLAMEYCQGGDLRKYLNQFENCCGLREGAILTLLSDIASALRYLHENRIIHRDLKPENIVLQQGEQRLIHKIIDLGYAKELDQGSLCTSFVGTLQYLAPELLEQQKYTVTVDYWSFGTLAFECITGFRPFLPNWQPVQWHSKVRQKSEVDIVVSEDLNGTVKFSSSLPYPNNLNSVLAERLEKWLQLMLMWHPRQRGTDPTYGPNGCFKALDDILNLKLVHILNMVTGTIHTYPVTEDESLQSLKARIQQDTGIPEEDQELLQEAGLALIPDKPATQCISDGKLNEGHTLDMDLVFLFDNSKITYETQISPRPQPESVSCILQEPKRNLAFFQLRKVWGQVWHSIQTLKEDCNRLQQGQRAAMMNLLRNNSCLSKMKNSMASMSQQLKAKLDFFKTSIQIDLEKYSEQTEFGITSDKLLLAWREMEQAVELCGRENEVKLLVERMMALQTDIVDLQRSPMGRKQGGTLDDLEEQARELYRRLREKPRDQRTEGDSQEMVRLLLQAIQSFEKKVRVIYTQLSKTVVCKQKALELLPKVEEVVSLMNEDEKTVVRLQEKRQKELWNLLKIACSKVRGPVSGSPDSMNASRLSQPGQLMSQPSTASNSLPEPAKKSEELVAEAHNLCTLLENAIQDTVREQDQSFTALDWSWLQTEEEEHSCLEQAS
PRKAA2, sequence (P54646 whole entry): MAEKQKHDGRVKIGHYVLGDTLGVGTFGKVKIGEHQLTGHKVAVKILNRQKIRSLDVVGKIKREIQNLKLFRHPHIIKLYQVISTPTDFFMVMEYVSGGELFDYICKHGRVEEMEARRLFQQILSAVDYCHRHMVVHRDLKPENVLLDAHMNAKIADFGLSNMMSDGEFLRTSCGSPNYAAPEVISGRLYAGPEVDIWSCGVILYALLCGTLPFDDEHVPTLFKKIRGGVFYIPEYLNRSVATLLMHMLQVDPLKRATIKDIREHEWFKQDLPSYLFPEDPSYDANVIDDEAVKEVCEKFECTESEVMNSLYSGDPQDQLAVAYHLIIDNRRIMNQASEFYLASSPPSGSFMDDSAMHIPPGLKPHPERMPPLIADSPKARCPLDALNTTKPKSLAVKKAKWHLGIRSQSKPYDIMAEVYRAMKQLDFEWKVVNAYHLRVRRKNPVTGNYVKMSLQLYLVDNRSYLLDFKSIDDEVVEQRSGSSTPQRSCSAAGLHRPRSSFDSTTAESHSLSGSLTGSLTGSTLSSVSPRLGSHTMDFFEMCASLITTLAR
ACVR2B, sequence (Q13705 whole entry): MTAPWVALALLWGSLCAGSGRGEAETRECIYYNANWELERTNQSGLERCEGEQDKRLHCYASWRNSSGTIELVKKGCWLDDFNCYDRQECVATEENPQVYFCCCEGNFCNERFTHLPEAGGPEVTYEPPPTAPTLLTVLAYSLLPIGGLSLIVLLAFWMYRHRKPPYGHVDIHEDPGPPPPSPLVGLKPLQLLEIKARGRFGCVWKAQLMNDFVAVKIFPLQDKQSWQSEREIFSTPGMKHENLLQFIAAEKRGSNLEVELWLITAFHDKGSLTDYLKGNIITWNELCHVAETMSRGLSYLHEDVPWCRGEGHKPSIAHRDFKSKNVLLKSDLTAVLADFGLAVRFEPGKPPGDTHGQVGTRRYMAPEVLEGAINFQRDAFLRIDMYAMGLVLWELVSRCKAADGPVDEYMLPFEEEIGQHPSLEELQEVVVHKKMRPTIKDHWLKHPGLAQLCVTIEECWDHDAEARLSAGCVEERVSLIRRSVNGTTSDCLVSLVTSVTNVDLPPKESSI
ACVR1B, sequence (P36896 whole entry): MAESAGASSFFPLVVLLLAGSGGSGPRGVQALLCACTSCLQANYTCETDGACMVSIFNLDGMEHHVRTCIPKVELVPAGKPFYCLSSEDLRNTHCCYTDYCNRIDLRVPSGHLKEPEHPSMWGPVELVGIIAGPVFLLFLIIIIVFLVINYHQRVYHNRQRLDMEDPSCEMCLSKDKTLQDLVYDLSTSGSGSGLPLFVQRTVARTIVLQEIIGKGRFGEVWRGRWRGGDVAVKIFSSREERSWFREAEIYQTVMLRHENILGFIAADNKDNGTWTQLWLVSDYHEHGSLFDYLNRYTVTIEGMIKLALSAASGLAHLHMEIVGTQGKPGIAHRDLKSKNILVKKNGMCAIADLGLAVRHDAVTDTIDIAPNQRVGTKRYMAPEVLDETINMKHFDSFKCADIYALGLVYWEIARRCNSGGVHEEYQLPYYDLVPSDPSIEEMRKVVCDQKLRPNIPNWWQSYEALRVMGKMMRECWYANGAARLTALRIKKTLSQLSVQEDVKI
MAP2K6, sequence (P52564 whole entry): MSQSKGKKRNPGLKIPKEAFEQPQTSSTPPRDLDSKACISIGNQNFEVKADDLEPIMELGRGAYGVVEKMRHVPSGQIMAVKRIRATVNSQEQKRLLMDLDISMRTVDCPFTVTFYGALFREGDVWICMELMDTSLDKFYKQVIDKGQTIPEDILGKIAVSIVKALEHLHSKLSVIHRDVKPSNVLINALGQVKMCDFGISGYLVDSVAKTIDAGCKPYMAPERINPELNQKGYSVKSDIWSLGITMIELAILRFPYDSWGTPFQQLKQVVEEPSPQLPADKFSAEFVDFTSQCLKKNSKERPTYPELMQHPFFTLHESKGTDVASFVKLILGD
NEK2, sequence (P51955 whole entry): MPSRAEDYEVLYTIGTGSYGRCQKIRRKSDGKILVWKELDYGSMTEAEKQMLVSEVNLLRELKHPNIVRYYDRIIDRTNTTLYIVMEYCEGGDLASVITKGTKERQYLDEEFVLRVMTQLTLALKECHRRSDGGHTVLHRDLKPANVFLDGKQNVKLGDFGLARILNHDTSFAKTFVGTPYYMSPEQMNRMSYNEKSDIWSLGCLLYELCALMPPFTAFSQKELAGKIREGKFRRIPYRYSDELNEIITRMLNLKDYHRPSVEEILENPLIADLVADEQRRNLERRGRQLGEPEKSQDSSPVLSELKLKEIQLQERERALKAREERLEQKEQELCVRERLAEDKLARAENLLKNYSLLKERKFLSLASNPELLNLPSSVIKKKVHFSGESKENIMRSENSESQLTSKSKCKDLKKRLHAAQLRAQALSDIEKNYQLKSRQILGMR
MYLK2, sequence (Q9H1R3 whole entry): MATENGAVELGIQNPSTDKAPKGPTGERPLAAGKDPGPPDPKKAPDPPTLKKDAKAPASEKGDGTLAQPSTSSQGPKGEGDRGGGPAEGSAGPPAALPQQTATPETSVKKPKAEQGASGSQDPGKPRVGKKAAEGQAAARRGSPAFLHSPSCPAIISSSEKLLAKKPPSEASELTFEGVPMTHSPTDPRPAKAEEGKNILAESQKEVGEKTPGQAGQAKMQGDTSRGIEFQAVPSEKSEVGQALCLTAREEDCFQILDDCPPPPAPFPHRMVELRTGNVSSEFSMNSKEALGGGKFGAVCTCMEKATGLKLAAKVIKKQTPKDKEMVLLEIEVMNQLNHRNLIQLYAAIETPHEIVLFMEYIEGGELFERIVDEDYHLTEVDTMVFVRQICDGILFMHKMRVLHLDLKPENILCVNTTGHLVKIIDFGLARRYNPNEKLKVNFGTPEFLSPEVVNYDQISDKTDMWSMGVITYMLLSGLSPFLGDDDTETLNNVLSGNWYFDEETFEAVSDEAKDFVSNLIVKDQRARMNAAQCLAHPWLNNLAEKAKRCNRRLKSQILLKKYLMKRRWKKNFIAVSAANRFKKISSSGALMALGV

In the case of `CC(=O)c1cccc(-c2cnc3ccc(NCC4CC4)nn23)c1` [compound 1, K00135], the “ΔTm inhibitor 1” value in test [1] was found to be 0.1 °C; in [2], 2.8 °C; in test [3], 11.5 °C; in test [4], 4.0 °C; in test [5] it was 3.7 °C; in [6], 0.5 °C. For the same molecule, the “ΔTm inhibitor 1” value was 1.1 °C in test [7]; 0.4 °C in [8]; 0.8 °C in [9]; 1.1 °C in [10]; 3.4 °C in test [11]; 11.1 °C in [12]. The “ΔTm inhibitor 1” value worked out at 2.9 °C in [13]; 1.1 °C in test [14]; 9.1 °C in test [15]; 3.4 °C in test [16]; 0.4 °C in test [17]; 7.4 °C in test [18].

For `CCN1/C(=C/C(C)=O)Sc2ccc(OC)cc21` [compound 2, TG003], the “ΔTm inhibitor 2” value in [1] is 0.4 °C; in test [2] it was 0.9 °C; in test [19] it was 0.3 °C; in test [5], -0.5 °C; in [6], -0.1 °C; in test [7], -0.1 °C. Moreover, the “ΔTm inhibitor 2” value in [20] is -0.1 °C; in test [8], 0.0 °C; in test [9] it was 2.7 °C; in test [21] it was 0.2 °C; in [10] it was 0.0 °C; in [22], 1.1 °C. Further, the “ΔTm inhibitor 2” value was -0.2 °C in [23]; -0.6 °C in test [24]; -0.1 °C in test [25]; 0.4 °C in test [26]; 0.8 °C in test [27]; -1.4 °C in test [28]. Besides, the “ΔTm inhibitor 2” value was 0.4 °C in test [14]; 0.1 °C in test [29]; -0.2 °C in test [30]; 0.7 °C in [16]; 0.0 °C in test [17]; 0.2 °C in test [31].

For the molecule `Nc1nccc(-c2ccc3noc(-c4ccc(Cl)cc4)c3c2)n1` [compound 4, K00972], the “ΔTm inhibitor 4” value in [3] was 0.2 °C; in test [4], 0.3 °C; in test [19], 0.2 °C; in test [20], 0.2 °C; in test [21] it was 0.1 °C; in [22], 0.3 °C. Besides, the “ΔTm inhibitor 4” value in [23] stood at 0.4 °C; in test [11], 2.2 °C; in test [24], 1.5 °C; in test [25] it was 0.2 °C; in test [26], 0.5 °C; in test [12], 1.2 °C. Moreover, the “ΔTm inhibitor 4” value in [27] amounted to 0.1 °C; in [28], 0.0 °C; in test [13], 1.6 °C; in test [15] it was 1.1 °C; in test [29], 1.5 °C; in test [30], 0.8 °C. Moreover, the “ΔTm inhibitor 4” value in [31] was determined as 0.3 °C; in test [18], 0.0 °C.

For the origin of these results see doi:10.1101/2020.07.01.182642v1 (biorxiv, 2020).
